Data published in patent US8748601B2, “Selective serine/threonine kinase inhibitors” (The Regents of the University of California, priority 2003, dated 2014).
Each block holds one molecule with its values, some of them ahead of it.

Tests used:
Rsk = Rsk autophosphorylation of Ser381 in Swiss 3T3 cells (Western blot); format: cell-based; settings: 5 μM, 1 hour, growth factors 10 min
Experimental: (§1) Enoate 2 blocks Rsk autophosphorylation of Ser381, which is catalyzed by its cysteine-containing C-terminal kinase domain. […] Swiss 3T3 cells were serum starved for 24 hours and treated with 5 μM enoate or 0.1% DMSO (control) for 1 hour. The cells were then stimulated with growth factors for 10 min. and lysed with 1×SDS-PAGE sample buffer. Proteins were separated by SDS-PAGE and transferred to nitrocellulose membranes for Western blot analysis. Phosphorylation-specific antibodies against Rsk and Erk were purchased from Cell Signaling. Antibodies against nonphosphorylated Rsk and Erk were purchased from Santa Cruz Biotech and Cell Signaling, respectively. (FIG. 4.)

Rsk2 [1] = test: Labeling by biotin-1 / bodipy-1 in Xenopus egg cytosol and competition by unlabeled compound; format: binding; settings: for Labeling of 90 kD protein by bodipy-1 after pretreatment: pretreatment with 1 μM
Experimental: To test whether compounds 1 and 2 (Formula IA, chloromethyl ketone and methyl enoate respectively) bind selectively and irreversibly to Rsk2, compound 1 was labeled with biotin. Xenopus egg cytosol was treated with 1 μM biotin-1. A major biotinylated 90 kD protein was detected by immunoblot analysis with streptavidin-HRP. Labeling of p90 with biotin-1 was abolished by pretreatment of the cytosol 1 μM of unlabeled 1. Thus, p90 is completely saturated by 1 at a concentration of 1 μM.
Labeling was abolished by pretreatment with 1 μM of 1 or 2.

Erk = Erk phosphorylation in Swiss 3T3 cells (Western blot); format: cell-based; settings: 5 μM, 1 hour, growth factors 10 min
Experimental: as §1

animal carcinoma model = settings: compared with reversible quinazoline inhibitors; cited from earlier work
V281C v-Src (v-Src-es1) [2] = test: Covalent labeling by biotin-cmk in NIH3T3 fibroblasts expressing v-Src-es1; format: cell-based; settings: biotin-cmk 2 μM, whole cell lysates
Description: (§2) To test whether cmk 4 could covalently label and inhibit Src kinases in vivo, we generated NIH3T3 fibroblast cell lines that stably overexpress either a wt v-Src allele or an electrophile-sensitive mutant, V281C v-Src (v-Src-es1). v-Src is constitutively active, and as a result of its expression in these cells, there is a substantial increase in phosphotyrosine levels. […] To test whether cmk 4 forms an irreversible, covalent bond with V281C v-Src, we conjugated biotin to the hydroxypropyl substituent. This point of attachment was chosen based on the model of cmk 4 bound to Hck in which the hydroxypropyl substituent is pointing out into solution.
(§3) NIH3T3 fibroblasts expressing either v-Src-es1 or v-Src were pretreated with increasing concentrations of cmk 4. Whole cells lysates were then prepared and treated with biotin-cmk (2 μM).

wt v-Src [3] = test: Covalent labeling by biotin-cmk in NIH3T3 fibroblasts expressing wt v-Src; format: cell-based; settings: biotin-cmk 2 μM, whole cell lysates
Description: as §2, §3

Val285Cys Fyn = Val285Cys Fyn (Homo sapiens, UniProt P06241, V285C); test: Inactivation of engineered Val285Cys Fyn; format: biochemical
V281C v-Src (v-Src-es1) [4] = biological target: T1, V281C v-Src (v-Src-es1) (UniProt P00524, V281C, species not given); test: Covalent labeling by biotin-cmk in NIH3T3 fibroblasts expressing v-Src-es1; format: cell-based
T1 construct: other: pretreatment of intact cells; lysates treated with biotin; Labeling of v-Src-es1 by biotin-cmk after pretreatment; other: pretreatment of intact cells with 1 μM
Description: as §2, §3

wt Fyn = wt Fyn (Homo sapiens, UniProt P06241); test: wt Fyn kinase activity in vitro; settings: 30 nM
Rsk2 CTD [5] = biological target: T2, Rsk2 CTD (Homo sapiens, UniProt P51812); test: Rsk2 CTD in vitro kinase assay, wild type; format: biochemical
T2 construct: We tested the halomethylketones against the Rsk2 CTD by adapting an in vitro kinase assay; made in house
Description: (§4) We tested the halomethylketones against the Rsk2 CTD by adapting an in vitro kinase assay developed by Chrestensen and Sturgill, J, Biol. Chem. 277:27733 (2002).

wt v-Src [6] = test: Global phosphotyrosine levels in NIH3T3 cells expressing wt v-Src; format: cell-based
Description: (§5) We also investigated whether cmk 4 could block the function of v-Src-es1 in mammalian cells by monitoring global phosphotyrosine levels in cells expressing either wt v-Src or v-Src-es1.

v-Src-es1 = test: Global phosphotyrosine levels in NIH3T3 cells expressing v-Src-es1; format: cell-based
Description: as §5

[7] = tested on: NIH3T3 cells expressing v-Src-es1; test: Reversion of transformed morphology in cells expressing v-Src-es1; format: cell-based; settings: 1 μM, 16 h
Description: (§6) Overexpression of v-Src in NIH3T3 fibroblasts causes morphological transformation. Nontransformed NIH3T3 cells have a flat morphology, characterized by long bundles of filamentous actin (“stress fibers”) that can be visualized by fluorescence microscopy. In contrast, NIH3T3 cells overexpressing wt v-Src or v-Src-es1 have a disorganized actin cytoskeleton that results in a round morphology. […] Under the same conditions, cells expressing wt v-Src are not affected by cmk 4 and maintain a round morphology (FIG. 8A). The effects of cmk 4 on cell morphology were quantified by counting 100-200 cells under each treatment condition for both wt v-Src and v-Src-es1. Approximately 80% of the cells expressing v-Src-es1 regain a flattened morphology upon treatment with 1 μM cmk 4, whereas less than 2% of cells expressing wt v-Src have actin stress fibers (FIG. 8B).

[8] = tested on: NIH3T3 cells expressing wt v-Src; test: Reversion of transformed morphology in cells expressing wt v-Src; format: cell-based; settings: 1 μM, 16 h
Description: as §6

Chemical stability = format: physicochemical; settings: compared with cmk 4
Rsk2 CTD Cys436Val = biological target: T3, Rsk2 CTD Cys436Val (Homo sapiens, UniProt P51812, C436V); test: Rsk2 CTD in vitro kinase assay, Cys436Val mutant; format: biochemical
T3 construct: we expressed and purified two CTD mutants, Cys436Val and Thr493Met; made in house
Description: as §4

Erk1/2 = test: EGF-stimulated Erk1/2 phosphorylation (Thr202, Tyr204) in COS-7 cells; format: cell-based; settings: 10 μM
Description: (§7) The only known Rsk2 CTD substrate is an autophosphorylation site, Ser386, in the linker region connecting the NTD and CTD. Phosphorylation of Ser386 creates a docking site for another kinase, phosphoinositide-dependent kinase 1 (PDK1), which phosphorylates and activates the NTD. […] The signaling pathway between EGF and Erk1/2 involves at least three protein kinases (EGFR, Raf, and MEK), two of which (EGFR and Raf) have threonine gatekeepers and cysteines in their ATP binding pockets (albeit at different locations relative to Rsk2 Cys436).

Rsk2 CTD [9] = biological target: Rsk2 CTD (Chlorocebus sabaeus, UniProt A0A0D9RPY4); test: EGF-stimulated Ser386 phosphorylation in COS-7 cells; format: cell-based; settings: read-out: Reduction of Ser386 phosphorylation
Description: as §7

Rsk1 = biological target: T4, Rsk1 (Homo sapiens, UniProt Q15418); test: Suppression of labeling by biotinylated fmk in human epithelial cell lysate, Rsk1; format: binding; settings: pretreatment with unlabeled compound
T4 construct: a crude lysate prepared from human epithelial cells; endogenous in cells
Description: A major concern with any pharmacological agent is its selectivity, not only among related family members, but among all other coexpressed proteins. To determine the global kinetic selectivity of fmk 5, we added a biotinylated derivative to a crude lysate prepared from human epithelial cells. Only two proteins in the lysate were labeled. […] Affinity purified antibodies raised against a Rsk1 peptide specifically immunoprecipitated the lower band, whereas a Rsk2 monoclonal antibody was specific for the upper band. Both proteins remained in the supernatant when a control rabbit IgG was used.

Rsk2 CTD Thr493Met = biological target: T5, Rsk2 CTD Thr493Met (Homo sapiens, UniProt P51812, T493M); test: Rsk2 CTD in vitro kinase assay, Thr493Met mutant; format: biochemical
T5 construct: we expressed and purified two CTD mutants, Cys436Val and Thr493Met; made in house
Description: as §4

Rsk2 [10] = biological target: Rsk2 (Homo sapiens, UniProt P51812); test: Suppression of labeling by biotinylated fmk in human epithelial cell lysate, Rsk2; format: binding; settings: pretreatment with unlabeled compound
Description: A major concern with any pharmacological agent is its selectivity, not only among related family members, but among all other coexpressed proteins.

Compound: COC(=O)/C=C/c1c(-c2ccc(C)cc2)c2c(N)ncnc2n1CCCO [Compound 2]
Rsk autophosphorylation of Ser381 (Rsk): blocks
Labeling of 90 kD protein by bodipy-1 after pretreatment (Rsk2 [1]): abolished
Erk phosphorylation (Erk): does not block

Compound: C=CC(=O)Nc1ccc2ncnc(Nc3cccc(Br)c3)c2c1 [PD 168393]
Efficacy in an animal carcinoma model (animal carcinoma model): far superior to reversible quinazoline inhibitors

Compound: Cc1ccc(-c2c(C(=O)CCl)n(CCCOC(=O)NCCCCNC(=O)CCCCC3SCC4NC(=O)NC43)c3ncnc(N)c23)cc1 (stereo not drawn) [biotin-cmk]
Covalent labeling of v-Src-es1 (V281C v-Src (v-Src-es1) [2]): covalently targeted v-Src-es1
Covalent labeling of wt v-Src (wt v-Src [3]): absence of covalent labeling

Compound: Cc1ccc(-c2c(C(=O)CCl)n(CCCO)c3ncnc(N)c23)cc1 [cmk 4]
Fold more potent than fmk 5 toward Val285Cys Fyn (Val285Cys Fyn): 100 fold
Inactivation of engineered Fyn with cysteine in place of Val285 (Val285Cys Fyn; 30 nM): rapidly inactivated
Time to inactivate Val285Cys Fyn (Val285Cys Fyn; 100 nM, 1 mM ATP): less than 5 min
Labeling of v-Src-es1 by biotin-cmk after pretreatment (V281C v-Src (v-Src-es1) [4]; pretreatment of intact cells with 1 μM): abolished
IC50 (V281C v-Src (v-Src-es1) [4]; read-out: IC50 for blocking labeling of v-Src-es1 by biotin-cmk, pretreatment of intact cells, lysates treated with biotin-cmk 2 μM): < 100 nM
Concentration at which p90 is completely saturated (Rsk2 [1]; Xenopus egg cytosol): 1 µM
Labeling of p90 with biotin-1 after pretreatment with unlabeled compound (Rsk2 [1]; pretreatment of the cytosol 1 μM, streptavidin-HRP immunoblot): abolished
Labeling of 90 kD protein by bodipy-1 after pretreatment (Rsk2 [1]): abolished
Effect on wild-type (WT) Fyn (wt Fyn): no effect
Inhibition of kinase activity of Rsk2 CTD (Rsk2 CTD [5]): potently inhibited
Phosphotyrosine in cells overexpressing wt v-Src (wt v-Src [6]; 1 μM): no apparent effect
Effect on wt v-Src in mammalian cells (wt v-Src [6]; summary statement): no effect
Detectable phosphotyrosine in cells overexpressing v-Src-es1 (v-Src-es1; 1 μM): near-complete reduction
Tyrosine phosphorylation in cells overexpressing v-Src-es1 (v-Src-es1; increasing concentrations): dose-dependent decrease
Function of mutant v-Src in mammalian cells (v-Src-es1; summary statement): irreversibly blocked the function
Cells expressing v-Src-es1 that regain a flattened morphology [7]: Approximately 80%
Transformed morphology of cells expressing v-Src-es1 ([7]; FITC-phallodin staining): caused reversion of the transformed morphology
Cells expressing wt v-Src that have actin stress fibers [8]: less than 2%
Morphology of cells expressing wt v-Src [8]: not affected

More lines, main results first:

Chemical stability (Chemical stability): greater chemical stability
inhibition at 3 µM (Rsk2 CTD [9]): 95%
Inhibition of kinase activity of Rsk2 CTD (Rsk2 CTD [5]): potently inhibited
Half-time of inactivation of Rsk2 CTD (Rsk2 CTD [5]; 1 μM, 1 mM ATP): less than 10 min
Concentration for complete saturation of Rsk1 (Rsk1): 0.3 µM
Concentration for complete saturation of Rsk2 (Rsk2 [10]): 1 µM
Compound: Cc1ccc(-c2c(C(=O)CF)n(CCCO)c3ncnc(N)c23)cc1 [fmk 5]
Inhibition and covalent modification of Cys436Val mutant (Rsk2 CTD Cys436Val): resistant to inhibition and covalent modification
EGF-stimulated phosphorylation of Erk1/2 Thr202 and Tyr204 (Erk1/2): no effect
Inhibition and covalent modification of Thr493Met mutant (Rsk2 CTD Thr493Met): resistant to inhibition and covalent modification

Potency relative to fmk 5 against the Cys436Val mutant (Rsk2 CTD Cys436Val): much more potent than fmk 5
IC50 (Rsk2 CTD Cys436Val; Rsk2 CTD C436V): 430 ± 140 nM
Fold weaker than fmk 5 toward WT Rsk2 (Rsk2 CTD [5]): 80 fold
IC50 (Rsk2 CTD [5]; Rsk2 CTD WT, read-out: IC50 values, WT): 1200 ± 80 nM
IC50 (Rsk2 CTD Thr493Met; Rsk2 CTD mutant, read-out: IC50 values, T439M): > 30000 nM
Compound: Cc1ccc(-c2cn(CCCO)c3ncnc(N)c23)cc1 [scaffold A]
